Data on one molecule can be found in patent US12110289B2, “Heterocyclic compounds, preparation methods and uses thereof” (InventisBio Co., Ltd., priority 2020, dated 2024).

In general, Cmax refers to the peak of the concentration-time curve.

Series [1] in a line: Rat PK study, single i.g. dose. Type of series: in vivo. Conditions: female, SD, plasma, PO, 10 mg/kg. Here is the method:
The pharmacokinetic (PK) profile of compounds following single i.g in SD rat obtained from […] Laboratory Animal Co., LTD of Shanghai was determined. Three female rats of weight around 220 g were used. Compounds were prepared at 1 mg/ml with the formulation of 10% DMSO+10% solutol HS15+80% (10% HPβCD in water). Blood samples (0.2 mL) were collected at 0 h (pre-dose) and 0.25, 0.5, 1, 2, 4, 8, 24 h time points after administration of compounds at the dose of 10 mg/kg. The collected blood samples were centrifuged without delay and the plasma was separated and transferred into tubes before storage at -70° C. prior to analysis. Aliquots of the plasma unknowns, blank and calibration standards were placed in 1.5 mL tubes and mixed with acetonitrile/methanol (1/1, v/v) containing IS. After vortexing for 5 min, each sample was centrifuged at 14000 rpm at 4° C. for 10 min. The supernatant were injected into the LC-MS/MS system. […] Eluates were analyzed using an API4000 Q-Trap mass spectrometer with a TurboIonSpray interface. Chromatographic separation was done with a mobile phase composed of water with 0.1% formic acid (solution A) and acetonitrile with 0.1% formic acid (solution B). The mobile phase was delivered at a flow rate of 0.6 mL/min, using a stepwise gradient elution program. To improve the sensitivity of the test compound screening, a MRM method in positive electrospray ionization mode was employed. Mass spectrometry data was acquired and analyzed using AB Sciex Analyst version 1.6.2 software. The pharmacokinetic parameters were derived using standard noncompartmental methods with Phoenix WinNonLin Professional Version 8.1.

Series [2] in a line: Human hepatocyte clearance study. Type of series: in vitro ADME. Conditions: human, pooled cryopreserved human hepatocytes (suspension), working cell density 2 × 10^6 viable cells/mL.
The subject of a further series is NCI-H358 xenograft. The series is described as follows: NSCLC H358 xenograft model, tumor volume. The series is classed as in vivo, BALB/c nude mice. The settings on record: for reduction of tumor volume, combined treatment vs either agent alone: FIG. 5. As to the method: (§1) All the procedures related to animal handling, care and the treatment in this study were performed according to the guidelines approved by the Institutional Animal Care and Use Committee (IACUC) of SIPPER B&K following the guidance of the Association for Assessment and Accreditation of Laboratory Animal Care (AAALAC). At the time of routine monitoring, the animals were checked for any effects of tumor growth on normal behavior such as mobility, food and water consumption (by looking only), body weight gain/loss (body weights were measured twice weekly), eye/hair matting and any other abnormal effect. Death and observed clinical signs were recorded on the basis of the numbers of animals within each subset.
The NCI-H358, SW837, NCI-H2122 tumor cells were purchased from the American Type Culture Collection (ATCC). Cells were maintained in vitro as monolayer cultured in RPMI-1640 or DMEM medium supplemented with 10% fetal bovine serum, 50 IU/ml penicillin/streptomycin (GIBCO) at 37° C. in an atmosphere of 5% CO2 in air. The tumor cells were routinely sub cultured twice weekly by trypsin-EDTA treatment. The cells growing in an exponential growth phase were harvested and counted for tumor inoculation.
For tumor bearing models, female 6- to 8-week-old athymic BALB/c nude mice were used for human cancer cell lines. Each mouse was inoculated subcutaneously at the right flank with tumor cells (10×10^6) in 0.1 ml of PBS. The treatments were started when the average tumor size reached approximately 200-250 mm^3. Carboplatin, Cisplatin was injected twice a week by i.p. Vehicles and other test articles were given orally as a suspension by gavage once daily during the study or treatment period.
(§2) Tumor volume was calculated by measuring two perpendicular diameters using the following formula: (L×W 2)/2 in which L and W refer to the length and width tumor diameter, respectively. Results are expressed as mean and standard deviation of the mean.

Another series has as its system NCI-H2122 xenograft. The series can be described thus: NSCLC H2122 xenograft model, tumor volume. The series is classed as in vivo, BALB/c nude mice. Conditions: 60 mg/kg oral once daily vs AMG510 at 60 mg/kg; FIG. 3. As to the method: as §1
The NCI-H358, SW837, NCI-H2122 tumor cells were purchased from the American Type Culture Collection (ATCC). Cells were maintained in vitro as monolayer cultured in RPMI-1640 or DMEM medium supplemented with 10% fetal bovine serum, 50 IU/ml penicillin/streptomycin (GIBCO) at 37° C. in an atmosphere of 5% CO2 in air. […] The cells growing in an exponential growth phase were harvested and counted for tumor inoculation. […]
as §2

On to `C=CC(=O)N1C[C@H](C)N(c2nc(=O)n(-c3c(C4CC4)ncnc3C3CC3)c3nc(-c4c(N)cccc4F)c(Cl)cc23)C[C@H]1C` [Compound 126], for which, in series [1] (read-out: Rat PO (10 mpk) AUC last), the AUC(0-t) was 3.8 µM·h. Further, in series [1] (read-out: Rat PO (10 mpk) Cmax), the Cmax worked out at 1060 nM. For the same molecule, the bioavailability in series [1] (read-out: Rat PO (10 mpk) F %) turned out to be 54%. For the same molecule, in series [2] (read-out: Human In vitro Clint (μl/min/10^6 cells)), the hepatocyte CLint at 1 µM amounted to 6.6 µL/min/1e6 cells. In addition, the half-life at 1 µM in series [2] (read-out: Human In vitro T1/2) was found to be 1.73 h. For the same molecule, the CLint scaled at 1 µM in series [2] (read-out: Human Scale-up Clint) is 17 mL/min/kg. For the same molecule, the “reducing tumor volume compared with AMG510” value is listed as “more effective than AMG510” in the series on NCI-H358 xenograft (30 mg/kg oral once daily vs AMG510 at 30 mg/kg, FIG. 2) and “more effective than AMG510” in the series with NCI-H2122 xenograft. In addition, the “reduction of tumor volume, combined treatment vs either agent alone” value in the series with NCI-H358 xenograft (Compound 126 at 5 mg/kg combined with RMC-4550 at 10 mg/kg) and in the series with NCI-H358 xenograft (Compound 126 at 5 mg/kg combined with cisplatin at 2 mg/kg) was “much better reduction of tumor volume” in each case.
